The structures appear in SMILES notation. Where a SMILES comes first, the peptide text is derived from it. The star is where a group is joined. 2Naphthoyl = O=C(c1ccc2ccccc2c1)*; X19 = O=C(/C=C\c1ccccc1)*; Boc = CC(C)(C)OC(=O)*

Test [1] has as its target T1, Cholecystokinin receptor type A (Cavia porcellus, UniProt Q63931).
T1 sequence (Q63931 whole entry): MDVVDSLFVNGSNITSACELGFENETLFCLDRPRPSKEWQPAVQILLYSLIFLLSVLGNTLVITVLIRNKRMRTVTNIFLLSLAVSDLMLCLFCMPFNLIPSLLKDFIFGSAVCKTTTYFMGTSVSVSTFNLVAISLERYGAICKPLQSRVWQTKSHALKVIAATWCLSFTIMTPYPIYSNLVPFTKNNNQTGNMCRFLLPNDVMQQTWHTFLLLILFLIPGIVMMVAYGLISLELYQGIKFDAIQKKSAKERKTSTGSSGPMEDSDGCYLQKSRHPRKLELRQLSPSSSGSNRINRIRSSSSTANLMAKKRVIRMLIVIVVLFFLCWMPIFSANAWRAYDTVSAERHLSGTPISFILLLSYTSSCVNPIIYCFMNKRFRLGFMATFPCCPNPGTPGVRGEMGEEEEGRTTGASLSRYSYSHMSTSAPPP
The test can be described thus: Inhibition of specific binding of [125I]BH-CCK-8 in guinea pig pancreas.

The species named for test [2] is Cavia porcellus. The test can be described thus: Hydrolysis of phosphoinositide (PI) relative to maximal response elicited by CCK-8 in guinea pig pancreas. Format: functional.
The species entered for test [3] is Cavia porcellus. The test can be described thus: Stimulation of amylase release in guinea pig pancreas. The test is classed as functional.

As usually defined, the IC50 is the concentration at which inhibition is half-maximal. A low value points to greater potency. As a reminder, the EC50 is the midpoint of the concentration-response curve. Compound `CC(C)(C)OC(=O)N[C@@H](Cc1c[nH]c2ccccc12)C(=O)N[C@@H](CCCCNC(=O)/C=C\c1ccccc1)C(=O)N[C@@H](CC(=O)O)C(=O)N[C@@H](Cc1ccccc1)C(N)=O` (Boc-WK(X19)DF-NH2) displayed an IC50 in test [1] of 55 nM. In the test listed under Cavia porcellus [2], the Max came out at 52%. In the test filed under Cavia porcellus [3], this compound gave an EC50 of 30 nM.
Turning to `CC(C)(C)OC(=O)N[C@@H](Cc1c[nH]c2ccccc12)C(=O)N[C@@H](CCCCNC(=O)c1ccc2ccccc2c1)C(=O)N[C@@H](CC(=O)O)C(=O)N[C@@H](Cc1ccccc1)C(N)=O` (Boc-WK(2Naphthoyl)DF-NH2), the IC50 in test [1] was 14 nM. This compound also returned a Max in the test listed under Cavia porcellus [2] of 36%. In the test filed under Cavia porcellus [3], the EC50 was determined as 4 nM.

The values are drawn from ChEMBL document CHEMBL1126058, “Development of potent and selective CCK-A receptor agonists from Boc-CCK-4: tetrapeptides containing Lys(N epsilon)-amide residues” (J Med Chem, 1992).
